{
  "source": "patent US20200148682A1",
  "about": "“AKT ISOZYME-SPECIFIC COVALENT INHIBITORS DERIVED FROM REDOX-SIGNALING LIPIDS” (Cornell University, priority 2017, published 2020)",
  "key": {"Halo-Akt3": {"target": "T1, Halo-Akt3 (Homo sapiens, UniProt Q9Y243)", "T1 construct": "expressed in transfected cells; host or cells: HEK293T", "T1 sequence (Q9Y243 whole entry)": "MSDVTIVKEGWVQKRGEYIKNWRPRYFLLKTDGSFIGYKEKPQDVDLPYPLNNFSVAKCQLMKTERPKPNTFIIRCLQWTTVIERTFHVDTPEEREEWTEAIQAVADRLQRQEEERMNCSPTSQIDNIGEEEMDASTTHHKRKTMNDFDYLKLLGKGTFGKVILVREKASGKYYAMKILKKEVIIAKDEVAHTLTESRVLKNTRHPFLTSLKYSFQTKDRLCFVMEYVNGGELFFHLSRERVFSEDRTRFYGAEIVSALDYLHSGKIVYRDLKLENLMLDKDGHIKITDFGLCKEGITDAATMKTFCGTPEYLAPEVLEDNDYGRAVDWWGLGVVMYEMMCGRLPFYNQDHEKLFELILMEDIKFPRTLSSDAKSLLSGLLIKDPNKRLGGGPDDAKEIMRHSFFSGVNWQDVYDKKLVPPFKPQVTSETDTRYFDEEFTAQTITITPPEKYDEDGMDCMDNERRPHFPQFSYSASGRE", "assay": "In-gel fluorescence assay (Cy5-azide click) of covalent labeling in transfected HEK293T cells", "type": "cell-based", "settings": "5 μM, 48 hours", "procedure": "HEK293T cells were transfected with Halo-Akt3 for 20 hours, then treated with the stated compound (5 μM, 48 hours). After this time, cells were lysed and the labeling was assayed by click chemistry. […] FIGS. 19A, 19C top gels are images showing in gel fluorescence, Cy5 channel. M is a molecular weight ladder. FIG. 19A, 19C lower panels are images of western blots (probing for Halo and actin, respectively) transferred from the same gel as the top image. […] FIGS. 19E-19F are graphs showing quantitation of in-gel Cy5 signal intensity, divided by the western blot signal for Halo.\nCell transfection with the designated plasmid encoding a given HaloTag-Akt fusion gene was carried out following the general procedure described in Example 12. After 20-24 hours, the transfection media were aspirated and replaced with fresh 2 mL rinse MEM medium supplemented with 3% FBS containing the indicated concentration of inhibitor or the equivalent final volume of DMSO and the plates were incubated for the indicated period of time. Cells were then harvested and lysed following the general procedure described in Examples 11 and 13. A portion of the lysate was made up to 25 μL final volume containing, in final concentrations, 5% t-BuOH, [2 mM TCEP, 1% SDS, 1 mM CuSO4, 0.1 mM Cu(TBTA), 10 μM Cy5 azide made up as a 10× stock in water] and 1.0 mg/mL lysate protein. The samples were incubated at 37° C. for 30 min and subsequently quenched with 8 μL of 4×Laemmeli dye containing 6% f ME. After an additional 5-min incubation at 37° C., samples were resolved on a 10% SDS-PAGE gel following the general procedure described in Example 14. After electrophoresis, the gel was rinsed three times with ddH2O and imaged on a Bio-Rad Chemi-doc-MP Imager. Where applicable, the gel was transferred to a PVDF membrane for western blot analysis following the general procedure described in Example 15."}, "recombinant Akt3": {"target": "T2, recombinant Akt3 (Homo sapiens, UniProt Q9Y243)", "T2 construct": "purchased Active Motif 31147", "T2 sequence (Q9Y243 whole entry)": "as above", "assay": "NADH-coupled Akt activity assay (progress curve analysis)", "type": "biochemical", "text": "FIGS. 20A-20H show the kinetic analysis of Akt3 covalent inhibition by MK-HNE, MK-FNE, and MK-dHNE. FIG. 20A is a schematic representation of the NADH-coupled kinetic assay to monitor the progress of Akt-catalyzed phosphorylation of the known peptide substrate, Crosstide (Akt substrate, cat. No. sc-471145, Santa Cruz). […] The solid curves are the best nonlinear fits of the data using EQN. 1. FIG. 20D is a graph showing a replot of kobs for the progress curve as a function of MK-HNE concentration. FIG. 20F is a graph showing a replot of kobs for the progress curve as a function of MK-dHNE concentration. The hyperbolic curve is the best nonlinear fit to EQN. 2. FIG. 20H is a graph showing kobs for the progress curve as a function of MK-FNE concentration fit to a cooperative binding equation using EQN 3. Inhibition of recombinant Akt3 ([…]) by MK-HNE, MK-dHNE, and MK-FNE was assayed by progress curve analysis: inhibitor was added to enzyme in assay buffer containing 100 nM Akt3 kinase, 100 μM Crosstide (Akt substrate, cat. No. sc-471145, Santa Cruz), 500 μM ATP, 4 mM TCEP, 5 mM phosphoenolpyruvate, pyruvate kinase (24-40 units/mL), lactate dehydrogenase (36-56 units/mL), 500 μM NADH and various concentrations of the inhibitor. All curves were background rate subtracted. Product formation was measured continuously for 6 min. Over this time, Akt3 activity was constant in the absence of the inhibitors.\nTo a 96-well plate with varying amounts of indicated inhibitors was added the kinetic assay mixture containing, in final concentrations, 50 mM HEPES, 100 mM NaCl, 10 mM MgCl2, 5 mM phosphoenolpyruvate, 500 μM NADH, 100 μM crosstide (the Akt substrate, cat. No. sc-471145, Santa Cruz), pyruvate kinase (24-40 units/mL), lactate dehydrogenase (36-56 units/mL), 4 mM TCEP, 500 μM ATP. […] The progress of phosphorylation was monitored by reading absorbance at 340 nm over the course of study. […]\nTo gain a more quantitative understanding of the covalent inhibitors, inhibition of Akt3 by MK-HNE in vitro was investigated. […] Loss of NADH was measured by decrease in A340 as a function of time. […]"}, "MDA-MB-468 cells": {"test_system": "MDA-MB-468 cells", "assay": "Cell cycle analysis using flow cytometry", "type": "cell-based", "settings": "for effect on cell cycle: 72 hours", "procedure": "MDA-MB-468 cells in a 6-well plate at 10% confluence were treated with HNE alkyne or the indicated drug at PI60 or PI80 concentration for 72 hours at 37° C. Negative control contained the equivalent volume of DMSO. Cells were grown and analyzed in separate batches of 1-2 replicates per condition that were run 2-3 times each. Each time the data points were normalized to the control set for each batch. At the indicated time post compound treatment, the culture medium was aspirated and the adherent cells were detached from the plate using trypsin, quenched with complete media, centrifuged (700 g), washed once with PBS, centrifuged (700 g), resuspended in PBS, then fixed with 70% ethanol for 24 hours. The cell suspensions were spun down at 1,000 g and washed with 500 μl of PBS twice. Each cell pellet was treated with 500 μL staining solution containing 50 μl of Ribonuclease A (≥70 Kunitz units/mg proteins, R6513, Sigma-Aldrich) and 50 μl of a propidium iodide (1 mg/ml, Sigma-Aldrich) solution in PBS with 1% BSA. The resulting solution was incubated with agitation at room temperature for 30 min in the dark.\nThe stained cells were assayed on a BD LSR II flow cytometer. FlowJo® was used to deconvolute the signals. Cells were grouped first by forward and side scatter (area), then that group was regrouped using forward (width) versus forward (area) scatter to give single cells. Cells were than analyzed using cellular DNA content to quantitate the percentage of cells in the respective phases (G1, S, G2/M and sub-G0) of the cell cycle."}},
  "note": "Entries after “also recorded” stand apart in the source; their conditions may differ.",
  "data": [
    {"smiles": "C#CCCCC(O)/C=C/C(=O)NC1(c2ccc(-c3nc4ccn5c(=O)[nH]nc5c4cc3-c3ccccc3)cc2)CCC1.Cl", "note": "(stereo not shown) [MK-HNE, (E)-8-(4-(1-(4-Hydroxynon-2-en-8-ynamido)cyclobutyl)phenyl)-3-oxo-9-phenyl-2,3-dihydro-[1,2,4]triazolo[3,4-f][1,6]naphthyridin-7-ium Chloride]", "values": [
      {"measurement": "covalent labeling of Halo-Akt3", "setting": "Halo-Akt3", "result": "labeling was observed; also recorded: able to elicit covalent labeling"},
      {"measurement": "inhibition profile of Akt3", "setting": "recombinant Akt3; progress curves", "result": "time-dependent inhibitor"},
      {"measurement": "effect on cell cycle", "setting": "MDA-MB-468 cells", "result": "G1 arrest"},
      {"measurement": "G1/G0 (percentage of cells in phase)", "setting": "MDA-MB-468 cells; drug at PI60, 72 hours", "result": 41.7},
      {"measurement": "G2/M (percentage of cells in phase)", "setting": "MDA-MB-468 cells; drug at PI60, 72 hours", "result": 30.3},
      {"measurement": "S (percentage of cells in phase)", "setting": "MDA-MB-468 cells; drug at PI60, 72 hours", "result": 25.9},
      {"measurement": "subG0 (percentage of cells in phase)", "setting": "MDA-MB-468 cells; drug at PI60, 72 hours", "result": 0.4},
      {"measurement": "G1/G0 (percentage of cells in phase)", "setting": "MDA-MB-468 cells; drug at PI80, 72 hours", "result": 49},
      {"measurement": "G2/M (percentage of cells in phase)", "setting": "MDA-MB-468 cells; drug at PI80, 72 hours", "result": 25.5},
      {"measurement": "S (percentage of cells in phase)", "setting": "MDA-MB-468 cells; drug at PI80, 72 hours", "result": 16.6},
      {"measurement": "subG0 (percentage of cells in phase)", "setting": "MDA-MB-468 cells; drug at PI80, 72 hours", "result": 5.5}
    ]},
    {"smiles": "NC1(c2ccc(-c3nc4ccn5c(=O)[nH]nc5c4cc3-c3ccccc3)cc2)CCC1", "note": "[MK-2206]", "values": [
      {"measurement": "G1/G0 (percentage of cells in phase)", "setting": "MDA-MB-468 cells; drug at PI60, 72 hours", "result": 41.8},
      {"measurement": "G2/M (percentage of cells in phase)", "setting": "MDA-MB-468 cells; drug at PI60, 72 hours", "result": 31.3},
      {"measurement": "S (percentage of cells in phase)", "setting": "MDA-MB-468 cells; drug at PI60, 72 hours", "result": 25.4},
      {"measurement": "subG0 (percentage of cells in phase)", "setting": "MDA-MB-468 cells; drug at PI60, 72 hours", "result": 0.3},
      {"measurement": "G1/G0 (percentage of cells in phase)", "setting": "MDA-MB-468 cells; drug at PI80, 72 hours", "result": 50.2},
      {"measurement": "G2/M (percentage of cells in phase)", "setting": "MDA-MB-468 cells; drug at PI80, 72 hours", "result": 29.0},
      {"measurement": "S (percentage of cells in phase)", "setting": "MDA-MB-468 cells; drug at PI80, 72 hours", "result": 19.6},
      {"measurement": "subG0 (percentage of cells in phase)", "setting": "MDA-MB-468 cells; drug at PI80, 72 hours", "result": 0.3}
    ]},
    {"smiles": "C#CCCCC(F)/C=C/C(=O)NC1(c2ccc(-c3nc4ccn5c(=O)[nH]nc5c4cc3-c3ccccc3)cc2)CCC1.Cl", "note": "(stereo not shown) [MK-FNE, (E)-8-(4-(1-(4-Fluoronon-2-en-8-ynamido)cyclobutyl)phenyl)-3-oxo-9-phenyl-2,3-dihydro-[1,2,4]triazolo[3,4-f][1,6]naphthyridin-7-ium Chloride]", "values": [
      {"measurement": "covalent labeling of Halo-Akt3", "setting": "Halo-Akt3", "result": "able to elicit covalent labeling"},
      {"measurement": "n (Hill coefficient)", "setting": "recombinant Akt3; cooperative binding fit of kobs vs concentration", "result": 3.2},
      {"measurement": "kinact/KI", "setting": "recombinant Akt3; recombinant Akt3, as stated in text", "result": "~10000", "unit": "M⁻¹ s⁻¹"},
      {"measurement": "effect on cell cycle", "setting": "MDA-MB-468 cells", "result": "G1 arrest"},
      {"measurement": "G1/G0 (percentage of cells in phase)", "setting": "MDA-MB-468 cells; drug at PI60, 72 hours", "result": 47.0},
      {"measurement": "G2/M (percentage of cells in phase)", "setting": "MDA-MB-468 cells; drug at PI60, 72 hours", "result": 33.3},
      {"measurement": "S (percentage of cells in phase)", "setting": "MDA-MB-468 cells; drug at PI60, 72 hours", "result": 18.6},
      {"measurement": "subG0 (percentage of cells in phase)", "setting": "MDA-MB-468 cells; drug at PI60, 72 hours", "result": 0.5},
      {"measurement": "G1/G0 (percentage of cells in phase)", "setting": "MDA-MB-468 cells; drug at PI80, 72 hours", "result": 58.9},
      {"measurement": "G2/M (percentage of cells in phase)", "setting": "MDA-MB-468 cells; drug at PI80, 72 hours", "result": 27.0},
      {"measurement": "S (percentage of cells in phase)", "setting": "MDA-MB-468 cells; drug at PI80, 72 hours", "result": 11.9},
      {"measurement": "subG0 (percentage of cells in phase)", "setting": "MDA-MB-468 cells; drug at PI80, 72 hours", "result": 0.8}
    ]}
  ]
}
